Laboratory results taken from article PMC7155171, “Probing the Open Global Health Chemical Diversity Library for Multistage-Active Starting Points for Next-Generation Antimalarials” (ACS Infectious Diseases, 2020).
Where two headings read alike, the source gives them in different places.

What was measured:
[1] = tested on: P. falciparum (NF54) stage V gametocytes; assay: Stage V gametocyte viability assay (MitoTracker Red CMXRos high content imaging); type: cell-based, Plasmodium falciparum; conditions: Plasmodium falciparum; for inhibition at 2 µM: read-out: Stg V Gam primary screen: Inhibition % (2uM) (n=2)
[2] = tested on: HepG2-A16-CD81 hepatocytes; assay: HepG2 cytotoxicity screening (CellTiter-Glo); conditions: for HepG2 cytotoxicity 12pt dose response: Maximum inhibition (%): 12pt dose response
[3] = HepG2 cytotoxicity screening (CellTiter-Glo); conditions: human, uninfected HepG2-A16-CD81 (EGFP) hepatocytes
[4] = tested on: P. berghei liver stage (PbLuc); assay: P. berghei luciferase liver stage (PbLuc) assay in HepG2-A16-CD81 hepatocytes; type: cell-based, Plasmodium berghei; conditions: Plasmodium berghei; for IC50: HepG2-A16-CD81, 12pt dose response, read-out: PbLuc 12pt dose response: IC50; for Emax: HepG2-A16-CD81, 48 h, 12pt dose response, maximum inhibition
[5] = target: recombinant firefly luciferase (Photinus pyralis, UniProt P08659); assay: biochemical; conditions: dose response; for Emax: maximum inhibition, read-out: rLuc inhibition dose response: Maximum inhibition (%); for IC50: read-out: rLuc inhibition dose response: IC50
[6] = NF54, 72 h, read-out: Stg V Gam dose response IC50 (µM) (n=3), 10-point dose response, n=3, 72 h
[7] = NF54, 72 h, read-out: GAM V IC50, stage V gametocytes, 72 h
[8] = NF54, read-out: Stg V Gam dose response IC50 (µM) (n=3), 10-point dose response, n=3, 72 h

Sequence of recombinant firefly luciferase (P08659 whole entry): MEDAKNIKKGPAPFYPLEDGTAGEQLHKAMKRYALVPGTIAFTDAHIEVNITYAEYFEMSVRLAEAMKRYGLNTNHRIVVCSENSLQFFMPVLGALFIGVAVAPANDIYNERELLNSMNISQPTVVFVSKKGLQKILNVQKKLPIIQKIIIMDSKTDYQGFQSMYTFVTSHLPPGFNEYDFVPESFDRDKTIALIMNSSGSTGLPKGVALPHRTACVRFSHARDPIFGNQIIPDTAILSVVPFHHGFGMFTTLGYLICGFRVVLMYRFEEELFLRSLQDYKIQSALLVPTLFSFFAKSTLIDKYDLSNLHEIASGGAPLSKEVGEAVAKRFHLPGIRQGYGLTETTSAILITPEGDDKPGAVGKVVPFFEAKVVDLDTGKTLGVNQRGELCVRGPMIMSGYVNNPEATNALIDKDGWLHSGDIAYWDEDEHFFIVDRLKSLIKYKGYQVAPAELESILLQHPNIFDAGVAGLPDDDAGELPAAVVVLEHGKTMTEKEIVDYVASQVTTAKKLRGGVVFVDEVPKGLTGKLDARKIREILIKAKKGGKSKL

| Structure (SMILES) | IC50 [1, 6] | inhibition at 2 µM ([1]; NF54, 72 h) | other results |
| --- | --- | --- | --- |
| Cc1cccc(CN2CCCn3c(nnc3Cn3cccn3)C2)n1 [DDD01084631, CC1=CC=CC(CN2CCCN3C(CN4C=CC=N4)=NN=C3C2)=N1] | 1.04 µM | 51.5% | – |
| Cc1cnc2c(S(=O)(=O)NC3CCS(=O)(=O)C3)cccc2c1 (centres unmarked) [DDD01296003, CC1=CN=C2C(C=CC=C2S(=O)(=O)NC2CCS(=O)(=O)C2)=C1] | 2.28 µM | 76.3% | – |
| Cc1nc(Nc2ncccn2)cc(C2CCCN2CC(C)C)n1 (centres unmarked) [DDD01061131, CC(C)CN1CCCC1C1=CC(NC2=NC=CC=N2)=NC(C)=N1] | 6.69 µM | 66.6% | – |
| Cc1nn(C)cc1CN1CCCC1c1cccc(Nc2nccs2)n1 (centres unmarked) [DDD01057079, CN1C=C(CN2CCCC2C2=CC=CC(NC3=NC=CS3)=N2)C(C)=N1] | 0.578 µM | 84.4% | IC50 [1, 7]: 0.58 µM |
| Cc1nnc(NCc2ccccc2Cl)c(C#N)c1C [DDD01302395, CC1=NN=C(NCC2=CC=CC=C2Cl)C(C#N)=C1C] | > 9.58 µM | 68.1% | – |
| CC(C)Nc1nc2c(c(NC3CC3)n1)CCN(C1CCOCC1)CC2 [DDD01029612, CC(C)NC1=NC2=C(CCN(CC2)C2CCOCC2)C(NC2CC2)=N1] | 4.48 µM | 57% | – |
| Cc1cc2nc(C(C)C)cc(NCC(c3ccccn3)N(C)C)n2n1 (centres unmarked) [DDD01256956, CC(C)C1=NC2=CC(C)=NN2C(NCC(N(C)C)C2=CC=CC=N2)=C1] | 0.933 µM | 64.8% | – |
| Cn1cccc1CNCC1CCCn2cc(C(C)(C)C)nc21 (centres unmarked) [DDD01062585, CN1C=CC=C1CNCC1CCCN2C=C(N=C12)C(C)(C)C] | 0.741 µM | 74% | IC50 [1, 7]: 0.74 µM |
| CCc1c(-c2ccccc2)nc2c(c(C)c(C)n2CCN(C)C)c1N [DDD01026714, CCC1=C(N=C2N(CCN(C)C)C(C)=C(C)C2=C1N)C1=CC=CC=C1] | 0.868 µM | 56.1% | – |
| COc1cc(CNC(c2ccccc2)c2nccn2C)cc(OC)c1 (centres unmarked) [DDD01296506, COC1=CC(OC)=CC(CNC(C2=NC=CN2C)C2=CC=CC=C2)=C1] | 0.513 µM | 58.3% | – |
| CNc1cc(C)nc(NCc2cc(C)cc3c(C)c(C)[nH]c23)n1 [DDD01248198, CNC1=CC(C)=NC(NCC2=C3NC(C)=C(C)C3=CC(C)=C2)=N1] | 0.791 µM | 70.7% | IC50 [1, 7]: 0.79 µM |
| CC(c1cccs1)N(C)Cc1cnc(-c2ccccn2)nc1 (centres unmarked) [DDD01246628, CC(N(C)CC1=CN=C(N=C1)C1=CC=CC=N1)C1=CC=CS1] | 0.293 µM | 81.7% | – |
| CCSCCNc1nc(-c2ccccn2)nc2c1c(C)nn2C [DDD01253625, CCSCCNC1=C2C(C)=NN(C)C2=NC(=N1)C1=CC=CC=N1] | 1.89 µM | 58.4% | IC50 [1, 7]: 1.88 µM |
| CCSCC(C)NCc1cn2ccccc2n1 (centres unmarked) [DDD01245879, CCSCC(C)NCC1=CN2C=CC=CC2=N1] | 1.71 µM | 74% | – |
| O=C(C1CC2(CCNCC2)CN1)N1CCN(c2cccc(Cl)c2Cl)CC1 (centres unmarked) [DDD01243908, ClC1=CC=CC(N2CCN(CC2)C(=O)C2CC3(CN2)CCNCC3)=C1Cl] | 4.94 µM | 52.8% | – |
| Cc1cccc(CN2CCC3(CCN(c4cccnc4)C3=O)C2)n1 (centres unmarked) [DDD01033290, CC1=CC=CC(CN2CCC3(CCN(C3=O)C3=CC=CN=C3)C2)=N1] | – | – | IC50 [1, 8]: 0.46 µM; inhibition at 2 µM ([1]; NF54, Table S6, 2uM, n=2, 72 h): 75.8% |
| Cc1cccc(CN2Cc3[nH]nc(COCCO)c3C2)n1 [DDD01030906, CC1=CC=CC(CN2CC3=C(C2)C(COCCO)=NN3)=N1] | 1.47 µM | 82.1% | – |
| COCc1noc(-c2ccc(N(C)Cc3ncccc3C)nc2)n1 [DDD01248427, COCC1=NOC(=N1)C1=CC=C(N=C1)N(C)CC1=NC=CC=C1C] | 1.02 µM | 58.1% | – |
| COCC(C)NCc1nc(-c2ccc(C)cc2)c(-c2ccccn2)[nH]1 (centres unmarked) [DDD01244737, COCC(C)NCC1=NC(=C(N1)C1=CC=C(C)C=C1)C1=CC=CC=N1] | 1.64 µM | 72.4% | IC50 [1, 7]: 1.64 µM |
| Cc1cccc(CN2C[C@@H]3COC[C@H](NS(C)(=O)=O)[C@@H]3C2)n1 [DDD01032715, CC1=CC=CC(CN2C[C@@H]3COC[C@H](NS(C)(=O)=O)[C@@H]3C2)=N1] | – | – | IC50 [1, 8]: 1.54 µM; inhibition at 2 µM ([1]; NF54, Table S6, 2uM, n=2, 72 h): 70.6% |
| c1ccc(CCN2CCCC2c2cccc(Nc3nccs3)n2)cc1 (centres unmarked) [DDD01056785, C(CC1=CC=CC=C1)N1CCCC1C1=CC=CC(NC2=NC=CS2)=N1] | 0.392 µM | 73.4% | IC50 [1, 7]: 0.39 µM |

| Structure (SMILES) | IC50 [1, 6] | inhibition at 2 µM ([1]; NF54, 72 h) | other results |
| --- | --- | --- | --- |
| Cc1cccc(CNC(Cc2ccsc2)c2nc(C)c(C)s2)n1 (centres unmarked) [DDD01059048, CC1=C(C)N=C(S1)C(CC1=CSC=C1)NCC1=CC=CC(C)=N1] | 3.9 µM | 65.3% | – |
| Cc1cc(C)n(C2=NC(NCCC(C)C)c3c(sc4c3CCCC4)N2)n1 (centres unmarked) [DDD01037468, CC(C)CCNC1N=C(NC2=C1C1=C(CCCC1)S2)N1N=C(C)C=C1C] | > 10 µM | – | – |
| Cc1nn(C)c2nc(-c3ccccn3)nc(NCCCOC(C)C)c12 [DDD01254389, CC(C)OCCCNC1=C2C(C)=NN(C)C2=NC(=N1)C1=CC=CC=N1] | 1.71 µM | 61.4% | IC50 [1, 7]: 1.71 µM |
| Cc1ccc2nc(CN(C)Cc3n[nH]c4c3CCCCC4)[nH]c2c1C [DDD01247714, CN(CC1=NC2=CC=C(C)C(C)=C2N1)CC1=C2CCCCCC2=NN1] | 1.62 µM | 89.8% | – |
| COc1cccc(CN2CCCC2c2cncc(Nc3nncs3)n2)c1 (centres unmarked) [DDD01058609, COC1=CC=CC(CN2CCCC2C2=CN=CC(NC3=NN=CS3)=N2)=C1] | 0.534 µM | 63.5% | IC50 [1, 7]: 0.53 µM |
| CCCc1nc2c(c(C)c(C)n2CCN(C)C)c(N)c1CC [DDD01026700, CCCC1=C(CC)C(N)=C2C(C)=C(C)N(CCN(C)C)C2=N1] | – | – | IC50 [1, 8]: 0.97 µM; inhibition at 2 µM ([1]; NF54, Table S6, 2uM, n=2, 72 h): 49.2% |
| Fc1ccc2[nH]c(C3CCCN3Cc3c[nH]cn3)nc2c1 (centres unmarked) [DDD01245473, FC1=CC=C2N=C(NC2=C1)C1CCCN1CC1=CN=CN1] | 1.88 µM | 53.9% | – |
| Cc1cnc(Nc2cccc(C3CCCN3Cc3cn(C)nc3C)n2)s1 (centres unmarked) [DDD01056825, CN1C=C(CN2CCCC2C2=NC(NC3=NC=C(C)S3)=CC=C2)C(C)=N1] | 0.095 µM | 85.8% | IC50 [1, 7]: 0.09 µM |
| Cc1cccc(CN2CCCC2c2cncc(Nc3nncs3)n2)c1 (centres unmarked) [DDD01058843, CC1=CC=CC(CN2CCCC2C2=CN=CC(NC3=NN=CS3)=N2)=C1] | 0.319 µM | 78.8% | IC50 [1, 7]: 0.32 µM |
| CO[C@H]1CCN(Cc2cccc(C)n2)[C@@H]2CN(Cc3cccnc3)C[C@H]12 [DDD01036932, CO[C@H]1CCN(CC2=CC=CC(C)=N2)[C@@H]2CN(CC3=CC=CN=C3)C[C@H]12] | 0.276 µM | 78.9% | – |
| Cc1cn2c(n1)C(CNCc1cccc3c1OCO3)CCC2 (centres unmarked) [DDD01073293, CC1=CN2CCCC(CNCC3=CC=CC4=C3OCO4)C2=N1] | 1.62 µM | 66.7% | – |
| COc1c(C)cnc(CN(C)C2CCCCC2)c1C [DDD01078822, COC1=C(C)C=NC(CN(C)C2CCCCC2)=C1C] | 1.45 µM | 84.8% | – |
| O=C(CN1CCc2sccc2C1)Nc1ccnc2ccnn12 [DDD01078865, O=C(CN1CCC2=C(C1)C=CS2)NC1=CC=NC2=CC=NN12] | 0.116 µM | 96.4% | – |
| CC(C)Nc1nc2c(c(NC3CC3)n1)CCN(Cc1nccn1C)CC2 [DDD01031405, CC(C)NC1=NC2=C(CCN(CC3=NC=CN3C)CC2)C(NC2CC2)=N1] | 2.65 µM | 58.7% | – |
| CN(C)c1nc(N)nc(CN2CCCC2c2cccs2)n1 (centres unmarked) [DDD01075894, CN(C)C1=NC(N)=NC(CN2CCCC2C2=CC=CS2)=N1] | 2.25 µM | 66% | – |
| Cn1cncc1CN1CCCC1c1cncc(Oc2ccc(Cl)cc2)n1 (centres unmarked) [UCSD-0800730] | – | – | HepG2 Cytotoxicity primary screen (2uM): % Inhibition [2]: 0.83%; HepG2 cytotoxicity 12pt dose response: Maximum inhibition (%) [2]: 38.2%; IC50 [3]: > 25 µM; IC50 [4]: 12.9 µM; Emax [4]: 92.6%; Emax [5]: 3.17%; IC50 [5]: > 25 µM |
| Clc1ccccc1-c1cc(CNc2ncnc3c2CCNCC3)no1 [UCSD-0827811] | – | – | HepG2 Cytotoxicity primary screen (2uM): % Inhibition [2]: -1.07%; HepG2 cytotoxicity 12pt dose response: Maximum inhibition (%) [2]: 49.9%; IC50 [3]: > 25 µM; IC50 [4]: 13.6 µM; Emax [4]: 93.4%; Emax [5]: 12.2%; IC50 [5]: > 25 µM |
| CCC1=NC(SCC(=O)c2ccccc2)c2cc(CC)sc2N1 (centres unmarked) [UCSD-0796974] | – | – | HepG2 cytotoxicity 12pt dose response: Maximum inhibition (%) [2]: 3.82%; IC50 [3]: > 25 µM; inhibition at 2 µM [3]: 3.26%; IC50 [4]: > 25 µM; Emax [4]: 42.1%; Emax [5]: 7.45%; IC50 [5]: > 25 µM |
| CCS(=O)(=O)N1CCc2ccc(NC(=O)Nc3cccc(SC)c3)cc21 [UCSD-0795016] | – | – | HepG2 cytotoxicity 12pt dose response: Maximum inhibition (%) [2]: 54%; IC50 [3]: 3.39 µM; inhibition at 2 µM [3]: 0%; IC50 [4]: 1.38 µM; Emax [4]: 98.9%; Emax [5]: 12.2%; IC50 [5]: > 25 µM |
| Cc1csc2ncnc(N3CCC(Cn4cc(C(C)(C)N)nn4)CC3)c12 [UCSD-0838044] | – | – | HepG2 Cytotoxicity primary screen (2uM): % Inhibition [2]: 4.60%; HepG2 cytotoxicity 12pt dose response: Maximum inhibition (%) [2]: 46.5%; IC50 [3]: > 25 µM; IC50 [4]: 11.4 µM; Emax [4]: 71.7%; Emax [5]: 21.9%; IC50 [5]: > 25 µM |
